Data taken from patent US20210186879A1, “TARGETED DELIVERY OF HYDROPHILIC DRUGS TO LUNG” (DOUBLE BOND PHARMACEUTICALS AB, priority 2016, published 2021).
Blank lines part the entries; values can stand above or below the compound they belong to.

Assays:
[1] = Solubility in aqueous ethanol (UV method); format: physicochemical; conditions: for Solubility in 30% ethanol: doxorubicin salts; for Solubility in 20% ethanol: doxycycline salts, Table 9, in mg/mL
Protocol: The mixture was centrifuged at 3000 rpm for 10 min and the supernatant filtered through a 0.2 micrometer filter to remove aggregates of undissolved solid product. The solubility of the compound was determined by a UV method. Particle size analysis was accomplished by laser diffraction method.

[2] = In vivo distribution of doxorubicin in lung and femoral muscle of Californian rabbits; conditions: 4 hours; for Femoral muscle DOX / Lung tissue DOX: 1.25 mg/kg i.v. marginal ear vein, ± SD
Protocol: (§1) For in vivo investigation both rats and rabbits were used: female Wistar rats 60-75 days old weighing 300 g±30 g and Californian breed male rabbits 75-90 days old weighing 2000 g±250 g were selected. […] Different doxorubicin containing formulations with a total doxorubicin dose 5 mg/kg were administered via a single bolus injection into the tail for rats and via a slow flow of 1 ml/min in the marginal ear vein for rabbits.
(§2) Five or six pieces of lung tissue of a total weight of about 1 g were taken from different parts of a lung. The samples were homogenized with a solution of aqueous ethanol containing HCl for 20 s at 7000 rpm and for 10 s at 11000 rpm. […] Doxorubicin and doxycycline (DOC) concentration in the final supernatant was determined with fluorometric analysis and high-performance liquid chromatography respectively.
Suspension of complexes of doxorubicin and doxorubicin hydrochloride were administered via a slow flow of 1 ml/min to rabbits in the marginal ear vein with a total doxorubicin dose 1.25 mg/kg. Animals were sacrificed after 4 hours after administration. Concentration of doxorubicin in lung and femoral muscle was determined in accordance to the procedure described above. As it is seen from table 8 the concentration of doxorubicin in femoral muscle as a representation of a system concentration is not increased for complexes compared with doxorubicin hydrochloride.

[3] = In vivo distribution of doxorubicin in lung and blood serum of Wistar rats; conditions: 4 hours; for Blood serum DOX / Lung tissue DOX: 5 mg/kg i.v. single bolus, ± SD; for Blood serum Relative difference / Lung tissue Relative difference: relative to control CI-DOX (1)
Protocol: as §1, §2
An aqueous solution of doxorubicin hydrochloride, an aqueous suspension of doxorubicin alkane sulfate and an aqueous suspension of doxorubicin alkyl sulfonate were administered via a single bolus injection into the tail Animals were sacrificed after 4 hours after administered via a single bolus injection into the tail; total doxorubicin dose 5 mg/kg. […] The results are summarized in Table 7 and illustrated in FIG. 10.

[4] = In vivo distribution of doxycycline in lung and blood serum of Wistar rats; conditions: 30 min; for Blood serum Difference / Lung tissue Difference: relative to control CI-DOX (1); for Blood serum DOX / Lung tissue DOX: doxycycline, 3 mg/kg i.v. single bolus, ± SD
Protocol: as §2

[5] = doxorubicin alkyl sulfates and alkane sulfonates, 30% ethanol (v/v)
[6] = doxycycline alkane sulfonates and alkyl sulfates, 20% aqueous ethanol
[7] = irinotecan alkane sulfonates, 30% ethanol (v/v) per table title
[8] = mitoxantrone alkyl sulfates and alkane sulfonates, 30% ethanol (v/v)

Solubility [1, 5]: 0.5077 mg/mL
Compound: CCCCCCCCCCOS(=O)(=O)O.COc1cccc2c1C(=O)c1c(O)c3c(c(O)c1C2=O)CC(O)(C(=O)CO)CC3OC1CC(N)C(O)C(C)O1 (stereo not drawn) [doxorubicin CnH2n+1OSO3^− n=10]

Femoral muscle DOX [2]: 0.20 ± 0.02 µg/kg | Lung tissue DOX [2]: 1.61 ± 0.25 µg/kg | Blood serum DOX [3]: 0.021 ± 0.007 µg/kg | Lung tissue DOX [3]: 0.77 ± 0.19 µg/kg
Compound: CCCCCCCCCCCCOS(=O)(=O)O.COc1cccc2c1C(=O)c1c(O)c3c(c(O)c1C2=O)C[C@@](O)(C(=O)CO)C[C@@H]3O[C@H]1C[C@H](N)[C@H](O)[C@H](C)O1 [doxorubicin CnH2n+1OSO3^− n=12]

Solubility [1, 5]: 0.0026 mg/mL
Compound: CCCCCCCCCCCCCCCCCCOS(=O)(=O)O.COc1cccc2c1C(=O)c1c(O)c3c(c(O)c1C2=O)CC(O)(C(=O)CO)CC3OC1CC(N)C(O)C(C)O1 (stereo not drawn) [doxorubicin CnH2n+1OSO3^− n=18]

Solubility [1, 5]: 1.064 mg/mL
Compound: CCCCCCCCCCS(=O)(=O)O.COc1cccc2c1C(=O)c1c(O)c3c(c(O)c1C2=O)CC(O)(C(=O)CO)CC3OC1CC(N)C(O)C(C)O1 (stereo not drawn) [doxorubicin CnH2n+1SO3^− n=10]

Blood serum DOX [3]: 0.014 ± 0.003 µg/kg | Lung tissue DOX [3]: 0.88 ± 0.09 µg/kg | Blood serum Relative difference [3]: 0.75 | Lung tissue Relative difference [3]: 1.24
Compound: CCCCCCCCCCCCS(=O)(=O)O.COc1cccc2c1C(=O)c1c(O)c3c(c(O)c1C2=O)CC(O)(C(=O)CO)CC3OC1CC(N)C(O)C(C)O1 (stereo not drawn) [doxorubicin CnH2n+1SO3^− n=12]

Solubility [1, 5]: 0.04596 mg/mL
Compound: CCCCCCCCCCCCCCS(=O)(=O)O.COc1cccc2c1C(=O)c1c(O)c3c(c(O)c1C2=O)CC(O)(C(=O)CO)CC3OC1CC(N)C(O)C(C)O1 (stereo not drawn) [doxorubicin CnH2n+1SO3^− n=14]

Femoral muscle DOX [2]: 0.12 ± 0.06 µg/kg | Lung tissue DOX [2]: 10.70 ± 0.77 µg/kg | Femoral muscle Relative difference ([2]; relative to control CI-DOX (1)): 0.52 | Lung tissue Relative difference ([2]; relative to control CI-DOX (1)): 12.89 | Solubility [1, 5]: 0.01194 mg/mL | Solubility in 30% ethanol ([1]; Table 7): 0.012 | Solubility in 30% ethanol ([1]; Table 8): 0.0119 | Blood serum DOX [3]: 0.019 ± 0.007 µg/kg | Lung tissue DOX [3]: 6.11 ± 0.75 µg/kg | Blood serum Relative difference [3]: 1.04 | Lung tissue Relative difference [3]: 8.61
Compound: CCCCCCCCCCCCCCCCS(=O)(=O)O.COc1cccc2c1C(=O)c1c(O)c3c(c(O)c1C2=O)CC(O)(C(=O)CO)CC3OC1CC(N)C(O)C(C)O1 (stereo not drawn) [doxorubicin CnH2n+1SO3^− n=16]

Solubility [1, 5]: 0.00279 mg/mL
Compound: CCCCCCCCCCCCCCCCCCS(=O)(=O)O.COc1cccc2c1C(=O)c1c(O)c3c(c(O)c1C2=O)CC(O)(C(=O)CO)CC3OC1CC(N)C(O)C(C)O1 (stereo not drawn) [doxorubicin CnH2n+1SO3^− n=18]

Solubility [1, 6]: 3.777 mg/mL
Compound: CC1c2cccc(O)c2C(O)=C2C(=O)C3(O)C(O)=C(C(N)=O)C(=O)C(N(C)C)C3C(O)C21.CCCCCCCCCCOS(=O)(=O)O (stereo not drawn) [doxycycline CnH2n+1OSO3^− n=10]

Blood serum Difference [4]: 1.10 | Lung tissue Difference [4]: 3.20 | Blood serum DOX [4]: 127 ± 22 ng/mL | Lung tissue DOX [4]: 551 ± 185 ng/mL
Compound: CC1c2cccc(O)c2C(O)=C2C(=O)C3(O)C(O)=C(C(N)=O)C(=O)C(N(C)C)C3C(O)C21.CCCCCCCCCCCCOS(=O)(=O)O (stereo not drawn) [doxycycline CnH2n+1OSO3^− n=12]

Solubility [1, 6]: 0.1178 mg/mL | Solubility in 20% ethanol [1]: 0.1178 | Blood serum Difference [4]: 0.39 | Lung tissue Difference [4]: 9.20 | Blood serum DOX [4]: 45 ± 1 ng/mL | Lung tissue DOX [4]: 1582 ± 101 ng/mL
Compound: CC1c2cccc(O)c2C(O)=C2C(=O)C3(O)C(O)=C(C(N)=O)C(=O)C(N(C)C)C3C(O)C21.CCCCCCCCCCCCCCOS(=O)(=O)O (stereo not drawn) [doxycycline CnH2n+1OSO3^− n=14]

Solubility [1, 6]: 0.03199 mg/mL
Compound: CC1c2cccc(O)c2C(O)=C2C(=O)C3(O)C(O)=C(C(N)=O)C(=O)C(N(C)C)C3C(O)C21.CCCCCCCCCCCCCCCCOS(=O)(=O)O (stereo not drawn) [doxycycline CnH2n+1OSO3^− n=16]

Solubility [1, 6]: 0.00523 mg/mL
Compound: CC1c2cccc(O)c2C(O)=C2C(=O)C3(O)C(O)=C(C(N)=O)C(=O)C(N(C)C)C3C(O)C21.CCCCCCCCCCCCCCCCCCOS(=O)(=O)O (stereo not drawn) [doxycycline CnH2n+1OSO3^− n=18]

Solubility [1, 6]: 3.165 mg/mL
Compound: CC1c2cccc(O)c2C(O)=C2C(=O)C3(O)C(O)=C(C(N)=O)C(=O)C(N(C)C)C3C(O)C21.CCCCCCCCCCS(=O)(=O)O (stereo not drawn) [doxycycline CnH2n+1SO3^− n=10]

Solubility [1, 6]: 0.3203 mg/mL | Solubility in 20% ethanol [1]: 0.3203 | Blood serum Difference [4]: 0.53 | Lung tissue Difference [4]: 5.48 | Blood serum DOX [4]: 61 ± 7 ng/mL | Lung tissue DOX [4]: 943 ± 600 ng/mL
Compound: CC1c2cccc(O)c2C(O)=C2C(=O)C3(O)C(O)=C(C(N)=O)C(=O)C(N(C)C)C3C(O)C21.CCCCCCCCCCCCS(=O)(=O)O (stereo not drawn) [doxycycline CnH2n+1SO3^− n=12]

Solubility [1, 6]: 0.0551 mg/mL
Compound: CC1c2cccc(O)c2C(O)=C2C(=O)C3(O)C(O)=C(C(N)=O)C(=O)C(N(C)C)C3C(O)C21.CCCCCCCCCCCCCCS(=O)(=O)O (stereo not drawn) [doxycycline CnH2n+1SO3^− n=14]

Solubility [1, 6]: 0.01034 mg/mL | Solubility in 20% ethanol [1]: 0.0103 | Blood serum Difference [4]: 0.22 | Lung tissue Difference [4]: 11.74 | Blood serum DOX [4]: 25 ± 2 ng/mL | Lung tissue DOX [4]: 2020 ± 117 ng/mL
Compound: CC1c2cccc(O)c2C(O)=C2C(=O)C3(O)C(O)=C(C(N)=O)C(=O)C(N(C)C)C3C(O)C21.CCCCCCCCCCCCCCCCS(=O)(=O)O (stereo not drawn) [doxycycline CnH2n+1SO3^− n=16]

Solubility [1, 6]: 0.00181 mg/mL
Compound: CC1c2cccc(O)c2C(O)=C2C(=O)C3(O)C(O)=C(C(N)=O)C(=O)C(N(C)C)C3C(O)C21.CCCCCCCCCCCCCCCCCCS(=O)(=O)O (stereo not drawn) [doxycycline CnH2n+1SO3^− n=18]

Solubility [1, 7]: 0.8348 mg/mL
Compound: CCCCCCCCCCS(=O)(=O)O.CCc1c2c(nc3ccc(OC(=O)N4CCC(N5CCCCC5)CC4)cc13)-c1cc3c(c(=O)n1C2)COC(=O)C3(O)CC (stereo not drawn) [irinotecan alkane sulfonate n=10]

Solubility [1, 7]: 0.1545 mg/mL
Compound: CCCCCCCCCCCCS(=O)(=O)O.CCc1c2c(nc3ccc(OC(=O)N4CCC(N5CCCCC5)CC4)cc13)-c1cc3c(c(=O)n1C2)COC(=O)C3(O)CC (stereo not drawn) [irinotecan alkane sulfonate n=12]

Solubility [1, 7]: 0.07064 mg/mL
Compound: CCCCCCCCCCCCCCS(=O)(=O)O.CCc1c2c(nc3ccc(OC(=O)N4CCC(N5CCCCC5)CC4)cc13)-c1cc3c(c(=O)n1C2)COC(=O)C3(O)CC (stereo not drawn) [irinotecan alkane sulfonate n=14]

Solubility [1, 7]: 0.01476 mg/mL
Compound: CCCCCCCCCCCCCCCCS(=O)(=O)O.CCc1c2c(nc3ccc(OC(=O)N4CCC(N5CCCCC5)CC4)cc13)-c1cc3c(c(=O)n1C2)COC(=O)C3(O)CC (stereo not drawn) [irinotecan alkane sulfonate n=16]

Compound: CCCCCCCCOS(=O)(=O)O.CCCCCCCCOS(=O)(=O)O.O=C1c2c(O)ccc(O)c2C(=O)c2c(NCCNCCO)ccc(NCCNCCO)c21 [mitoxantrone CnH2n+1OSO3^− n=8]
Solubility [1, 8]: 0.7806 mg/mL

Compound: CCCCCCCCCCOS(=O)(=O)O.CCCCCCCCCCOS(=O)(=O)O.O=C1c2c(O)ccc(O)c2C(=O)c2c(NCCNCCO)ccc(NCCNCCO)c21 [mitoxantrone CnH2n+1OSO3^− n=10]
Solubility [1, 8]: 0.1758 mg/mL

Compound: CCCCCCCCCCCCCCOS(=O)(=O)O.CCCCCCCCCCCCCCOS(=O)(=O)O.O=C1c2c(O)ccc(O)c2C(=O)c2c(NCCNCCO)ccc(NCCNCCO)c21 [mitoxantrone CnH2n+1OSO3^− n=14]
Solubility [1, 8]: 0.0072 mg/mL

Compound: CCCCCCCCS(=O)(=O)O.CCCCCCCCS(=O)(=O)O.O=C1c2c(O)ccc(O)c2C(=O)c2c(NCCNCCO)ccc(NCCNCCO)c21 [mitoxantrone CnH2n+1SO3^− n=8]
Solubility [1, 8]: 1.348 mg/mL

Compound: CCCCCCCCCCS(=O)(=O)O.CCCCCCCCCCS(=O)(=O)O.O=C1c2c(O)ccc(O)c2C(=O)c2c(NCCNCCO)ccc(NCCNCCO)c21 [mitoxantrone CnH2n+1SO3^− n=10]
Solubility [1, 8]: 0.2949 mg/mL

Compound: CCCCCCCCCCCCS(=O)(=O)O.CCCCCCCCCCCCS(=O)(=O)O.O=C1c2c(O)ccc(O)c2C(=O)c2c(NCCNCCO)ccc(NCCNCCO)c21 [mitoxantrone CnH2n+1SO3^− n=12]
Solubility [1, 8]: 0.6831 mg/mL

Compound: CCCCCCCCCCCCCCS(=O)(=O)O.CCCCCCCCCCCCCCS(=O)(=O)O.O=C1c2c(O)ccc(O)c2C(=O)c2c(NCCNCCO)ccc(NCCNCCO)c21 [mitoxantrone CnH2n+1SO3^− n=14]
Solubility [1, 8]: 0.00203 mg/mL
